Laboratory results reported in patent publication EP0572863A1, “CNS pyrazinoindoles” (priority 1992, dated 1993).
Like-named read-outs stand apart in the source and are kept apart here.

What was measured:
5HT₂-Rezeptoren = target: T1, 5HT₂-Rezeptoren (Rattus norvegicus, UniProt P14842); assay: Antagonism of Quipazine-induced head shakes; format: in vivo, Ratte; settings: Quipazine-pretreated, dose inhibiting number of head shakes within 45 min by 50%
T1 construct: from tissue; host or cells: living rat (whole animal)

5HT₂-Rezeptor = 5HT₂-Rezeptor (Homo sapiens, UniProt P28223); assay: 3H-Metanserin binding test (test method d)
5HT1c-Rezeptoren = target: T2, 5HT1c-Rezeptoren (Rattus norvegicus, UniProt P08909); assay: Antagonism of mCPP-induced penile erections; format: in vivo, Ratte; settings: mCPP-pretreated, dose inhibiting number of penile erections within 45 min by 50%
T2 construct: from tissue; host or cells: living rat (whole animal)
T2 sequence (P08909 33-460): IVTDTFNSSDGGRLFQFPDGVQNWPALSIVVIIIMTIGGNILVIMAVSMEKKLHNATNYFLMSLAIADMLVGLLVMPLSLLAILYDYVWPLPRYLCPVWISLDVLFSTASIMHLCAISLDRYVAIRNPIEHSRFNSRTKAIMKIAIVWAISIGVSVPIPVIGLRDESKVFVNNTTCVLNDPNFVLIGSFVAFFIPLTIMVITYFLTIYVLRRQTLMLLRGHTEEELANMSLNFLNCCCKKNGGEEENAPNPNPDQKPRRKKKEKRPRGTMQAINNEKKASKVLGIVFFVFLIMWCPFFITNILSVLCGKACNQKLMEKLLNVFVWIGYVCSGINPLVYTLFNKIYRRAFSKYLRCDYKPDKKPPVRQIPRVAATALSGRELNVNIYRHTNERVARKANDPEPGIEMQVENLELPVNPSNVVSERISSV

5HT1A-Rezeptor = target: T3, 5HT1A-Rezeptor (Homo sapiens, UniProt P08908); assay: 3H-8-OH-DPAT binding test (test method a)
T3 sequence (P08908 1-422): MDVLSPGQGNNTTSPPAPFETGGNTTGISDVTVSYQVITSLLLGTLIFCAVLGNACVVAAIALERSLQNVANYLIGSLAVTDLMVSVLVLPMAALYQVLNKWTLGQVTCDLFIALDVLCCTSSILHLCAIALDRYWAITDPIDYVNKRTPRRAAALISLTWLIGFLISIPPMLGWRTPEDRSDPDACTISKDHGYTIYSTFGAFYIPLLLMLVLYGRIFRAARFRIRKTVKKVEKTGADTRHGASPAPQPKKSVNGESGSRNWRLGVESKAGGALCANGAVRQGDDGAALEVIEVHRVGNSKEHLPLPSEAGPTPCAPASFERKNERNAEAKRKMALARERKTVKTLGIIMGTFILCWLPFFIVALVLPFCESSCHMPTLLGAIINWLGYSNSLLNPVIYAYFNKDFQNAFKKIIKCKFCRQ

5HT1C-Rezeptor = 5HT1C-Rezeptor (Homo sapiens, UniProt P28335); assay: 3H-Mesulergin binding test (test method c)
[1] = Testmethode a, concentration displacing 50% of receptor-bound ligand (3H-8-OH-DPAT), read-out: IC₅₀
[2] = Testmethode d, concentration displacing 50% of receptor-bound ligand (3H-Metanserin), read-out: IC₅₀
[3] = Testmethode c, concentration displacing 50% of receptor-bound ligand (3H-Mesulergin), read-out: IC₅₀

T1 sequence (P14842 whole entry): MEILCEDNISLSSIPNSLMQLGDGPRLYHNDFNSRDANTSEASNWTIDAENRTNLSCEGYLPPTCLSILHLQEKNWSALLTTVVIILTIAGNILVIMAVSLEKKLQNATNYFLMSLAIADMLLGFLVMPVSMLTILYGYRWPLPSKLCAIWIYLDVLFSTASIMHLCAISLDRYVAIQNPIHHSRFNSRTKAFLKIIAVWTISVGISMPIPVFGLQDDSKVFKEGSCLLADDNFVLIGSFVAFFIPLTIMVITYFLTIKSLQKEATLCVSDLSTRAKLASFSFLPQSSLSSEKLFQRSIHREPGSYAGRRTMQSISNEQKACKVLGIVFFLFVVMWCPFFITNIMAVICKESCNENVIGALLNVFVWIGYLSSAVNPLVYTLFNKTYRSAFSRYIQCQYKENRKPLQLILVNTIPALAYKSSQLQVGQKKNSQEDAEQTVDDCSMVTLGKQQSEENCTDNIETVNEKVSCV
Sequence of 5HT₂-Rezeptor (P28223 whole entry): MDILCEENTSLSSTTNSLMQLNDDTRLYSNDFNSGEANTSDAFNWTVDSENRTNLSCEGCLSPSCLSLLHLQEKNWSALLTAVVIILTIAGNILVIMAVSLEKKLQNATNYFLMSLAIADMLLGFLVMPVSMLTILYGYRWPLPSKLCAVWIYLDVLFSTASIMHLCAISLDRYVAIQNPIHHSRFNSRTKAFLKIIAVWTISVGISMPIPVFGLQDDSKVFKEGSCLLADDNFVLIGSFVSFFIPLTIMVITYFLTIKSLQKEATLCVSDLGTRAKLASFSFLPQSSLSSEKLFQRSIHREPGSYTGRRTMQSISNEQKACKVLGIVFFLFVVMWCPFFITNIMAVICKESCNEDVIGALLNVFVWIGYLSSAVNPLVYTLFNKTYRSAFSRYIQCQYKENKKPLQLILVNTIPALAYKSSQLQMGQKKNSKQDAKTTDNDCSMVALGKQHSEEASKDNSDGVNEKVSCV
Sequence of 5HT1C-Rezeptor (P28335 33-458): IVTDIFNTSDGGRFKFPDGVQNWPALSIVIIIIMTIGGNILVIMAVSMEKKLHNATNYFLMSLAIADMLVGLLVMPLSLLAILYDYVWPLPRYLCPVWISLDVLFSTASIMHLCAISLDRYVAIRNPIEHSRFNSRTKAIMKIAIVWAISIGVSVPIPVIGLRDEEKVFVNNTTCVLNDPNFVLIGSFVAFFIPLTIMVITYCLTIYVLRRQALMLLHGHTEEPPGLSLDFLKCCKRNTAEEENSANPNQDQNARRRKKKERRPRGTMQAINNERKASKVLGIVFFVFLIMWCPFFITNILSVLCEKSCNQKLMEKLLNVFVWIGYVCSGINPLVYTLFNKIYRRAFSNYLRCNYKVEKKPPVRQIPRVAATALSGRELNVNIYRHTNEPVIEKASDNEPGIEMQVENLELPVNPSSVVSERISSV

## COc1c2n(c3cccc(Br)c13)CCNC2 [Substanz E, 9-Brom-1,2,3,4-tetrahydro-10-methoxy-pyrazino[1,2-a]indol]
5HT₂-Rezeptoren
  ID₅₀: 3.1 mg/kg. s.c.
5HT₂-Rezeptor
  IC50: 1020 nM
5HT1c-Rezeptoren
  ID₅₀: 4.3 mg/kg, s.c.
5HT1A-Rezeptor
  IC50: 407 nM
5HT1C-Rezeptor
  IC50: 83.8 nM

## COc1c2n(c3ccccc13)CCNC2 [Substanz A, 10-Methoxy-1,2,3,4-tetrahydropyrazino[1,2-a]-indol]
5HT1A-Rezeptor; [1]
  IC50: 687 nM

## COc1ccc2[nH]cc(C3=CCNCC3)c2c1 [RU 24969, reference compound]
5HT1A-Rezeptor
  IC50: 8 nM

## COc1c2n(c3cc(Cl)ccc13)CCNC2 [Substanz F, 7-Chlor-1,2,3,4-tetrahydro-10-methoxy-pyrazino[1,2-a]indol]
5HT₂-Rezeptor; [2]
  IC50: 9460 nM
5HT1A-Rezeptor
  IC50: 425 nM
5HT1C-Rezeptor; [3]
  IC50: 406 nM

## COc1ccccc1N1CCN(CCCCN2C(=O)c3ccccc3C2=O)CC1 [NAN-190, reference compound]
5HT₂-Rezeptor
  IC50: 581 nM
5HT1C-Rezeptor; [3]
  IC50: 1800 nM

## O=c1ccc2[nH]cc(C3=CCNCC3)c2[nH]1 [CP 93129, reference compound]
5HT₂-Rezeptor
  IC50: 29200 nM
5HT1A-Rezeptor
  IC50: 1620 nM

## COc1c2n(c3ccc(F)c(Cl)c13)CCNC2 [Substanz H, 9-Chlor-8-fluor-1,2,3,4-tetrahydro-10-methoxy-pyrazino[1,2-a]indol]
5HT₂-Rezeptor; [2]
  IC50: 1030 nM
5HT1A-Rezeptor
  IC50: 354 nM
5HT1C-Rezeptor; [3]
  IC50: 90.5 nM

## Clc1cccc(N2CCNCC2)c1 [mCPP, reference compound]
5HT1A-Rezeptor
  IC50: 227 nM

## COc1c2n(c3cc(Cl)cc(Cl)c13)CCNC2 [Substanz L, 7,9-Dichlor-1,2,3,4-tetrahydro-10-methoxy-pyrazino[1,2-a]indol]
5HT₂-Rezeptor; [2]
  IC50: 5850 nM
5HT1A-Rezeptor
  IC50: 459 nM
5HT1C-Rezeptor; [3]
  IC50: 251 nM

## CSc1c2n(c3ccccc13)CCNC2 [Substanz K, 1,2,3,4-Tetrahydro-10-methylthiopyrazino[1,2-a]-indol]
5HT1A-Rezeptor; [1]
  IC50: 705 nM

## COc1c2n(c3ccc(Br)cc13)CCNC2 [Substanz G, 8-Brom-1,2,3,4-tetrahydro-10-methoxy-pyrazino[1,2-a]indol]
5HT₂-Rezeptor; [2]
  IC50: 2810 nM
5HT1A-Rezeptor
  IC50: 298 nM
5HT1C-Rezeptor; [3]
  IC50: 269 nM

## COc1c2n(c3ccc(Cl)cc13)CCNC2 [Substanz D, 8-Chlor-1,2,3,4-tetrahydro-10-methoxy-pyrazino[1,2-a]-indol]
5HT₂-Rezeptor; [2]
  IC50: 3140 nM
5HT1A-Rezeptor
  IC50: 657 nM
5HT1C-Rezeptor
  IC50: 195 nM

## Fc1ccc2c(cc3n2CCNC3)c1Cl [Substanz N, 9-Chlor-8-fluor-1,2,3,4-tetrahydropyrazino[1,2-a]indol]
5HT₂-Rezeptoren
  ID₅₀: 5.2 mg/kg. s.c.
5HT₂-Rezeptor; [2]
  IC50: 902 nM
5HT1c-Rezeptoren
  ID₅₀: 4.2 mg/kg, s.c.
5HT1A-Rezeptor
  IC50: 964 nM
5HT1C-Rezeptor; [3]
  IC50: 57 nM

## Cc1nc2ccccn2c(=O)c1CCN1CCC(C(=O)c2ccc(F)cc2)CC1 [Pirenperon, reference compound]
5HT₂-Rezeptor; [2]
  IC50: 2.9 nM
5HT1A-Rezeptor
  IC50: 2870 nM
5HT1C-Rezeptor
  IC50: 37 nM

## COc1c2n(c3cccc(C(F)(F)F)c13)CCNC2 [Substanz J, 9-Trifluormethyl-1,2,3,4-tetrahydro-10-methoxy-pyrazino[1,2-a]-indol]
5HT₂-Rezeptor; [2]
  IC50: 374 nM
5HT1A-Rezeptor
  IC50: 512 nM
5HT1C-Rezeptor; [3]
  IC50: 66 nM

## COc1c2n(c3cccc(F)c13)CCNC2 [Substanz C, 9-Fluor-1,2,3,4-tetrahydro-10-methoxy-pyrazino[1,2-a]indol]
5HT₂-Rezeptor
  IC50: 5170 nM
5HT1c-Rezeptoren
  ID₅₀: 17.0 mg/kg, s.c.
5HT1A-Rezeptor
  IC50: 1070 nM
5HT1C-Rezeptor
  IC50: 221 nM

## COc1c2n(c3c(Br)cccc13)CCNC2 [Substanz M, 6-Brom-1,2,3,4-tetrahydro-10-methoxy-pyrazino[1,2-a]indol]
5HT₂-Rezeptor; [2]
  IC50: 3030 nM
5HT1A-Rezeptor
  IC50: 690 nM
5HT1C-Rezeptor; [3]
  IC50: 923 nM

## COc1c2n(c3cccc(C)c13)CCNC2 [Substanz I, 1,2,3,4-Tetrahydro-10-methoxy-9-methyl-pyrazino[1,2-a]indol]
5HT₂-Rezeptoren
  ID₅₀: 3.0 mg/kg. s.c.
5HT₂-Rezeptor; [2]
  IC50: 2270 nM
5HT1c-Rezeptoren
  ID₅₀: 2.7 mg/kg, s.c.
5HT1A-Rezeptor; [1]
  IC50: 106 nM
5HT1C-Rezeptor; [3]
  IC50: 219 nM

## Cc1nc2sccn2c(=O)c1CCN1CCC(=C(c2ccc(F)cc2)c2ccc(F)cc2)CC1 [Ritanserin, reference compound]
5HT1C-Rezeptor; [3]
  IC50: 37 nM

## COc1c2n(c3ccc(F)cc13)CCNC2 [Substanz B, 8-Fluor-1,2,3,4-tetrahydro-10-methoxy-pyrazino[1,2-a]-indol]
5HT₂-Rezeptor
  IC50: 9390 nM
5HT1c-Rezeptoren
  ID₅₀: 4.2 mg/kg, s.c.
5HT1A-Rezeptor
  IC50: 2370 nM
5HT1C-Rezeptor
  IC50: 367 nM
